These molecules were tested against MAPK14 (UniProt Q16539) (assay: Inhibition of MAPK14 Kinase Activity).
Chain of MAPK14 (Q16539 whole entry, looked up): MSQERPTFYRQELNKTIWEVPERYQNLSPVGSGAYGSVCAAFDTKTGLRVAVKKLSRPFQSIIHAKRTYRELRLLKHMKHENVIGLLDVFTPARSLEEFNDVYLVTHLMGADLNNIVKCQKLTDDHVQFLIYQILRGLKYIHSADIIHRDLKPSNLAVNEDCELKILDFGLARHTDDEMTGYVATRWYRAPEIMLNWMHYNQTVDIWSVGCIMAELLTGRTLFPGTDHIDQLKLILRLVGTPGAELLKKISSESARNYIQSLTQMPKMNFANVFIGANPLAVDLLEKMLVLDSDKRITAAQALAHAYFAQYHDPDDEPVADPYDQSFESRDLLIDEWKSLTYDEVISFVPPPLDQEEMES

IC50, < 5 µM:
Cc1ccc(-n2nc(C(C)(C)C)cc2NC(=O)Nc2ccc(N3CCN(C(=O)C4CC4)CC3)cc2)cc1
Cc1ccsc1C(=O)N1CCC(Oc2cccc(NC(=O)Nc3cc(C(C)(C)C)nn3C)c2)CC1
COc1cccc(F)c1C(=O)N1CCC(Oc2cc(F)cc(NC(=O)Nc3cc(C(C)(C)C)nn3C)c2)CC1
Cc1ccc(-n2nc(C(C)(C)C)cc2NC(=O)Nc2ccc(OC3CCN(C(=O)c4c(Cl)cccc4Cl)CC3)cc2)cc1
Cn1nc(C(C)(C)C)cc1NC(=O)Nc1ccc(OC2CCN(C(=O)c3c[nH]cn3)CC2)cc1
Cc1ccc(-n2nc(C(C)(C)C)cc2NC(=O)Nc2ccc(CN3CCN(C(=O)C4CC4)CC3)cc2)cc1
Cn1nc(C(C)(C)C)cc1NC(=O)Nc1cc(F)cc(OC2CCN(C(=O)C3CC3(Cl)Cl)CC2)c1 (centres undefined)
Cn1nc(C(C)(C)C)cc1NC(=O)Nc1ccc(CN2CCN(C(=O)c3c(Cl)cccc3Cl)CC2)cc1
Cn1nc(C(C)(C)C)cc1NC(=O)Nc1cc(F)cc(OC2CCN(C(=O)c3cc4ccccc4[nH]3)CC2)c1
Cn1nc(C(C)(C)C)cc1NC(=O)Nc1ccc(OC2CCN(C(=O)c3sccc3Cl)CC2)cc1
Cc1cc(C(=O)N2CCC(Oc3cccc(NC(=O)Nc4cc(C(C)(C)C)nn4C)c3)CC2)c(C)[nH]1
Cc1ccsc1C(=O)N1CCC(Oc2cc(F)cc(NC(=O)Nc3cc(C(C)(C)C)nn3C)c2)CC1
Cc1ccc(-n2nc(C(C)(C)C)cc2NC(=O)Nc2ccc(N3CCN(C(=O)C4CCCNC4)CC3)cc2)cc1 (centres undefined)
Cn1nc(C(C)(C)C)cc1NC(=O)Nc1ccc(OC2CCN(C(=O)c3c(F)cccc3F)CC2)cc1
Cn1nc(C(C)(C)C)cc1NC(=O)Nc1cccc(OC2CCN(C(=O)c3ccccc3F)CC2)c1
Cc1ccc(-n2nc(C(C)(C)C)cc2NC(=O)Nc2ccc(N3CCN(C(N)=O)CC3)cc2)cc1
CC(C)n1nc(C(C)(C)C)cc1NC(=O)Nc1ccc(CN2CCN(C(=O)c3c(F)cccc3F)CC2)cc1
Cc1ccsc1C(=O)N1CCC(Oc2ccc(NC(=O)Nc3cc(C(C)(C)C)nn3C)cc2)CC1
Cc1ccc(-n2nc(C(C)(C)C)cc2NC(=O)Nc2ccc(N3CCN(C(=O)c4c(Cl)cccc4Cl)CC3)cc2)cc1
